Laboratory results as given in PubChem BioAssay (NCI).
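Abbreviation: GI50, concentration required for 50% inhibition of growth. TGI marks complete inhibition of growth.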

Legend:
Assay in all cases: NCI anticancer screen, dose series, 384-well format
A498 renal = system: A498 renal
A549 NSCLC = system: A549 NSCLC
CAKI-1 renal = system: CAKI-1 renal
CCRF-CEM leukemia = system: CCRF-CEM leukemia
COLO 205 colon = system: COLO 205 colon
DU-145 prostate = system: DU-145 prostate
HCT-116 colon = system: HCT-116 colon
HCT-15 colon = system: HCT-15 colon
HL-60(TB) leukemia = system: HL-60(TB) leukemia
HOP-62 NSCLC = system: HOP-62 NSCLC
HOP-92 NSCLC = system: HOP-92 NSCLC
HS 578T breast = system: HS 578T breast
HT29 colon = system: HT29 colon
K-562 leukemia = system: K-562 leukemia
KM12 colon = system: KM12 colon
LOX IMVI melanoma = system: LOX IMVI melanoma
M14 melanoma = system: M14 melanoma
MALME-3M melanoma = system: MALME-3M melanoma
MCF7 breast = system: MCF7 breast
MDA-MB-231 breast = system: MDA-MB-231 breast
MDA-MB-435 melanoma = system: MDA-MB-435 melanoma
MDA-MB-468 breast = system: MDA-MB-468 breast
NCI-H23 lung = system: NCI-H23 lung
NCI-H322M lung = system: NCI-H322M lung
NCI-H460 NSCLC = system: NCI-H460 NSCLC
NCI-H522 lung = system: NCI-H522 lung
OVCAR-3 ovarian = system: OVCAR-3 ovarian
OVCAR-4 ovarian = system: OVCAR-4 ovarian
OVCAR-5 ovarian = system: OVCAR-5 ovarian
PC-3 prostate = system: PC-3 prostate
RPMI-8226 leukemia = system: RPMI-8226 leukemia
RXF 393 renal = system: RXF 393 renal
SF-268 CNS = system: SF-268 CNS
SF-295 CNS = system: SF-295 CNS
SF-539 CNS = system: SF-539 CNS
SK-MEL-2 melanoma = system: SK-MEL-2 melanoma
SK-MEL-28 melanoma = system: SK-MEL-28 melanoma
SK-MEL-5 melanoma = system: SK-MEL-5 melanoma
SK-OV-3 ovarian = system: SK-OV-3 ovarian
SN12C renal = system: SN12C renal
SNB-75 CNS = system: SNB-75 CNS
SR leukemia = system: SR leukemia
SW-620 colon = system: SW-620 colon
TK-10 renal = system: TK-10 renal
UACC-257 melanoma = system: UACC-257 melanoma
UACC-62 melanoma = system: UACC-62 melanoma
UO-31 renal = system: UO-31 renal

Cc1cc2c(C(C)C)c(O)c(O)c(C=O)c2c(O)c1-c1c(C)cc2c(C(C)C)c(O)c(O)c(C=O)c2c1O (tested in a mixture with another compound) was tested, and the GI50 (A498 renal) was 2.41 µM, the TGI (A498 renal) was 9.87 µM and the GI50 (A549 NSCLC) was 1.86 µM. It also gave a TGI (A549 NSCLC) of 4.5 µM, a GI50 (CAKI-1 renal) of 2.53 µM and a TGI (CAKI-1 renal) of 5.93 µM. It also gave a GI50 (CCRF-CEM leukemia) of 1.14 µM, a TGI (CCRF-CEM leukemia) of 2.38 µM and a GI50 (COLO 205 colon) of 3.18 µM. The TGI (COLO 205 colon) was 9.01 µM, the GI50 (DU-145 prostate) was 1.86 µM and the TGI (DU-145 prostate) was 3.47 µM. For the same compound, the GI50 (HCT-116 colon) was 1.7 µM, the TGI (HCT-116 colon) was 3.12 µM and the GI50 (HCT-15 colon) was 1.83 µM. For the same compound, the TGI (HCT-15 colon) was 3.35 µM, the GI50 (HL-60(TB) leukemia) was 1.69 µM and the TGI (HL-60(TB) leukemia) was 3.09 µM. The GI50 (HOP-62 NSCLC) was 2.24 µM, the TGI (HOP-62 NSCLC) was 3.9 µM and the GI50 (HOP-92 NSCLC) was 1.78 µM. For the same compound, the TGI (HOP-92 NSCLC) was 4 µM, the GI50 (HS 578T breast) was 1.67 µM and the TGI (HS 578T breast) was 3.06 µM. For the same compound, the GI50 (HT29 colon) was 2.88 µM, the TGI (HT29 colon) was 9.04 µM and the GI50 (K-562 leukemia) was 1.4 µM. The TGI (K-562 leukemia) was 2.87 µM, the GI50 (KM12 colon) was 1.5 µM and the TGI (KM12 colon) was 3.1 µM. The GI50 (LOX IMVI melanoma) was 1.83 µM, the TGI (LOX IMVI melanoma) was 3.42 µM and the GI50 (M14 melanoma) was 1.83 µM. For the same compound, the TGI (M14 melanoma) was 3.79 µM, the GI50 (MALME-3M melanoma) was 1.7 µM and the TGI (MALME-3M melanoma) was 3.47 µM. It also gave a GI50 (MCF7 breast) of 2.09 µM, a TGI (MCF7 breast) of 4.51 µM and a GI50 (MDA-MB-231 breast) of 1.88 µM. It also gave a TGI (MDA-MB-231 breast) of 4.15 µM, a GI50 (MDA-MB-435 melanoma) of 2.42 µM and a TGI (MDA-MB-435 melanoma) of 5.17 µM. For the same compound, the GI50 (MDA-MB-468 breast) was 1.68 µM, the TGI (MDA-MB-468 breast) was 3.29 µM and the GI50 (NCI-H23 lung) was 1.84 µM. The TGI (NCI-H23 lung) was 4.06 µM, the GI50 (NCI-H322M lung) was 1.67 µM and the TGI (NCI-H322M lung) was 4.14 µM. It also gave a GI50 (NCI-H460 NSCLC) of 1.9 µM, a TGI (NCI-H460 NSCLC) of 3.4 µM and a GI50 (NCI-H522 lung) of 1.86 µM. It also gave a TGI (NCI-H522 lung) of 4.1 µM, a GI50 (OVCAR-3 ovarian) of 1.59 µM and a TGI (OVCAR-3 ovarian) of 3.46 µM. The GI50 (OVCAR-4 ovarian) was 2.85 µM, the TGI (OVCAR-4 ovarian) was 7.52 µM and the GI50 (OVCAR-5 ovarian) was 2.29 µM. It also gave a TGI (OVCAR-5 ovarian) of 4.57 µM, a GI50 (PC-3 prostate) of 1.67 µM and a TGI (PC-3 prostate) of 3.52 µM. The GI50 (RPMI-8226 leukemia) was 1.42 µM, the TGI (RPMI-8226 leukemia) was 2.73 µM and the GI50 (RXF 393 renal) was 0.604 µM. For the same compound, the TGI (RXF 393 renal) was 1.96 µM, the GI50 (SF-268 CNS) was 1.66 µM and the TGI (SF-268 CNS) was 3.26 µM. The GI50 (SF-295 CNS) was 1.21 µM, the TGI (SF-295 CNS) was 2.71 µM and the GI50 (SF-539 CNS) was 1.72 µM. The TGI (SF-539 CNS) was 3.18 µM, the GI50 (SK-MEL-2 melanoma) was 1.97 µM and the TGI (SK-MEL-2 melanoma) was 3.61 µM. For the same compound, the GI50 (SK-MEL-28 melanoma) was 1.59 µM, the TGI (SK-MEL-28 melanoma) was 3.13 µM and the GI50 (SK-MEL-5 melanoma) was 1.76 µM. For the same compound, the TGI (SK-MEL-5 melanoma) was 3.18 µM, the GI50 (SK-OV-3 ovarian) was 2.58 µM and the TGI (SK-OV-3 ovarian) was 6.67 µM. The GI50 (SN12C renal) was 1.92 µM, the TGI (SN12C renal) was 3.73 µM and the GI50 (SNB-75 CNS) was 2.26 µM. For the same compound, the TGI (SNB-75 CNS) was 4.37 µM, the GI50 (SR leukemia) was 1.8 µM and the TGI (SR leukemia) was 3.21 µM. For the same compound, the GI50 (SW-620 colon) was 2.07 µM, the TGI (SW-620 colon) was 3.98 µM and the GI50 (TK-10 renal) was 2.48 µM. It also gave a TGI (TK-10 renal) of 6.23 µM, a GI50 (UACC-257 melanoma) of 1.99 µM and a TGI (UACC-257 melanoma) of 3.8 µM. For the same compound, the GI50 (UACC-62 melanoma) was 1.81 µM, the TGI (UACC-62 melanoma) was 3.25 µM and the GI50 (UO-31 renal) was 2.73 µM. For the same compound, the TGI (UO-31 renal) was 7.08 µM.
